# Source: patent publication US20020086835A1, “Use of adenosine deaminase inhibitors to treat systemic inflammatory response syndrome” (priority 2000, published 2002)
# Values joined by “and” are separate entries in the source; they are usually repeats but may differ in a detail not shown here. Identical values can stand only once. “Also recorded” adds a separate entry of the source.
# What was measured:
# [1] = biological target: T1, adenosine deaminase (Homo sapiens, UniProt P00813); settings: FIG. 10 legend; cited from earlier work
# T1 sequence (P00813 1-363): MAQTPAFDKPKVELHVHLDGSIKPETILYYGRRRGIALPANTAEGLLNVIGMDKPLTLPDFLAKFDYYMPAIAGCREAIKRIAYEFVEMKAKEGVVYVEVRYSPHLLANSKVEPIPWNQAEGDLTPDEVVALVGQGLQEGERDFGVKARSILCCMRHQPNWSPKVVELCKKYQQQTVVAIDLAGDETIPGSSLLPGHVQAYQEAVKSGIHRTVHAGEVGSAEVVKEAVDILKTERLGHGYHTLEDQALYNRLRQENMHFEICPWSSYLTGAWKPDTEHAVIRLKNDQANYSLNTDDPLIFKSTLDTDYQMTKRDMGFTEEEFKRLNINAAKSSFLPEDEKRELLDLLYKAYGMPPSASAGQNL
# [2] = system: TNF-α; experiment: Serum TNF-α in fluid-resuscitated sepsis-induced SIRS; assay type: in vivo, rat; settings: 24 hours after SIRS induction, 1 mg/kg pentostatin 2 hours after induction
# Description: (§1) SIRS was induced secondary to sepsis by ip introduction of […] cecal matter in 5 ml/kg D5W.
# (§2) It is increasingly apparent that feedback between pro and anti-inflammatory processes is critically important to the clinical outcome from SIRS, as taught by Bone (Bone, 1996). The balance between complementary pro-and anti-inflammatory molecules is typified by TNF α and its soluble receptors, sTNF types I and II. The ability of ADA inhibition to restore balance to these complimentary molecules in the SIRS responses was tested with a more clinically relevant addition of fluid resuscitated sepsis. […] Further evidence of a complex, modulatory mode of action is indicated by IL-10 concentrations in the liver and spleen.
# Serum and tissue tumor necrosis factor-α (TNF-α) concentrations were determined by enzyme-linked immunosorbant assay. Samples of serum, liver, and spleen were collected, rapidly weighed, and frozen in liquid nitrogen. On the day of assay, tissues are added to labeled tubes containing lysis buffer (volume=10 ml/gram wt. with 1:10 dilution) and kept on ice. […] Optical density of each well at […] was determined within 30 minutes using a Biotek Instruments EL312e microtiter plate reader. Concentrations of TNF-α were calculated from the standard curves.
# [3] = system: TNF-α; experiment: Serum TNF-α by ELISA in rats with chronic peritoneal sepsis (200 mg/kg cecal slurry ip); assay type: in vivo, rat; settings: septic rats; for Effect on serum TNF-α response to sepsis at 4 hours / Effect on serum TNF-α response to sepsis at 24 hours: versus saline-treated septic group; for Serum TNF-α at 4 hours after sepsis induction / Serum TNF-α at 24 hours after sepsis induction: treated at time of sepsis induction
# Description: (§3) Studies were conducted to determine if manipulation of adenosine-mediated events would result in alterations in the TNF-α response in this model. At the time of sepsis induction, rats were treated in one of four ways. One group received only 0.9% normal saline as a vehicle control (No Rx; n=6). […] The third group received the adenosine deaminase inhibitor, erythro-9-(2-hydroxy-3-nonyl)adenine (EHNA; 1 μmole/kg+1 μmole/kg/hr; iv; n=3). A fourth group received the adenosine receptor antagonist 8-sulfophenyltheophylline (SPT; 400 μg/kg/8 hours; n=5).
# (§4) Sepsis was induced under pentobarbital anesthesia (50 mg/kg) in each rat by intraperitoneal (ip) injection of 200 mg/kg rat cecal contents mixed as a slurry in 5% dextrose in water (D5W). […] Non-septic controls received an equivalent volume ip injection of D5W. Polyethylene catheters (Intramedic PE-50, Baxter) were inserted into the right internal jugular vein and right carotid artery. The jugular catheter was used for venous access (drug infusions; volume replacement, etc). The carotid catheter was used to obtain arterial blood samples, and to monitor arterial blood pressure and heart rate. The catheters were secured in their respective vessels, tunneled subcutaneously to exit in the interscapular region, and filled with heparinized saline (50 units/ml 0.9% normal saline). Incisions were closed in layers using 3-0 silk. Rats were allowed to recover from anesthetic and provided food and water ad libitum,
# Serum and tissue tumor necrosis factor-α (TNF-α) concentrations were determined by enzyme-linked immunosorbant assay. Samples of serum, liver, and spleen were collected, rapidly weighed, and frozen in liquid nitrogen. On the day of assay, tissues are added to labeled tubes containing lysis buffer (volume=10 ml/gram wt. with 1:10 dilution) and kept on ice. The lysis buffer is 20 mM Tris (pH 7.4) containing […] phenylmethylsulfonylflouride (PMSF), […] leupeptin, 0.7 g/ml pepstatin, and 2.0 g/ml aprotinin to inhibit proteases. Samples were immediately homogenized using five 3 see bursts, washing grinding pistol (3×) between samples with phosphate buffered saline. Samples are then centrifuged for 20 min at 2200 RPM, 4° C. The supernatant was removed and used for TNF-α measurements. Briefly, each microplate well contained 50 μl of assay diluent. To each well, 50 μl of standard, control, or serum/homogenate supernatant sample were added and mixed on an orbital plate shaker. Plates were incubated at room temperature for 2 hours. Each well was then aspirated and washed with wash buffer 4 times. After final aspiration of wash buffer, 100 μl of rat TNF-α conjugate was added to each well. Wells were then covered and incubated for 2 hours at room temperature. At the end of the incubation, the aspiration/wash procedure was repeated 4 times, after which 100 μl of stabilized chromogen solution was added to each well. Next, plates were incubated for 45 minutes at room temperature in a dark area. After this final incubation period, 100 μl stopping solution was added to each well. Optical density of each well at […] was determined within 30 minutes using a Biotek Instruments EL312e microtiter plate reader. Concentrations of TNF-α were calculated from the standard curves.
# At the time of sepsis induction, rats were treated in one of three ways. One group received only 0.9% normal saline as a vehicle control (VEH, n=6, where n is the number of rats). […] A third group received the adenosine receptor antagonist, 8-sulfophenyltheo-phylline (SPT; 400 μg/kg/8 h; n=5). Serum TNF-α (pg/ml) was determined at 4 and 24 hours after sepsis induction by ELISA.
# Male SD rats (350-400 g) were made septic by IP introduction of a 200 mg/kg cecal slurry. […] TNF-α (pg/ml) was determined at 4 and 24 hours after sepsis induction by ELISA.
# [4] = system: sTNFRII or p75; experiment: Circulating soluble TNF receptor II in fluid-resuscitated sepsis-induced SIRS; assay type: in vivo, rat; settings: 24 hours after SIRS induction; 1 mg/kg pentostatin 2 hours after induction
# Description: as §1, §2
# [5] = system: septic rats; experiment: Blood pressure and heart rate in septic rats; settings: chronic treatment
# Description: as §3
# as §4, with “The catheters were secured in their respective vessels, tunneled subcutaneously to exit in the interscapular region, and filled with heparinized saline (50 units/ml 0.9% normal saline). Incisions were closed in layers using 3-0 silk. Rats were allowed to recover from anesthetic and provided food and water ad libitum,” left out
# (§5) At the time of sepsis induction, rats were treated in one of three ways. […] Serum TNF-α (pg/ml) was determined at 4 and 24 hours after sepsis induction by ELISA.
# [6] = system: SIRS rats; experiment: Survival up to 6 days after SIRS induction secondary to sepsis (FIG. 15); assay type: in vivo, rat; settings: 1 mg/kg
# Description: All rats received 50 ml/kg 0.9% normal saline iv 2 hours after SIRS induction.
# Inhibition of up to 100% can be maintained for no more than 3 consecutive days, after which ADA activity should be allowed to return to at least 50% of baseline values before another dose of the inhibitor can be given. […] One-two hours after administration of a starting dose of the inhibitor, adenosine deaminase activity can be measured in various bodily fluids, tissues, dialysates, or cells by spectrophotometric methods according to the method of Vielh and Castellazzi, or other appropriate measurement that provides information regarding ADA enzyme activity. Measurement of adenosine deaminase activity can also be used to monitor the return of ADA activity after therapeutic inhibition for the treatment or prevention of SIRS.
# [7] = system: IL-6; experiment: Serum IL-6 in fluid-resuscitated sepsis-induced SIRS; assay type: in vivo, rat; settings: 24 hours after SIRS induction, 1 mg/kg pentostatin 2 hours after induction
# Description: as §1, §2
# [8] = system: lipid peroxidation (TBARS); experiment: Thiobarbituric acid reactive substances (TBARS) in jejunum of septic rats; settings: 24 hours, versus saline (No Rx)
# [9] = system: sTNFRI or p55; experiment: Circulating soluble TNF receptor I in fluid-resuscitated sepsis-induced SIRS; assay type: in vivo, rat; settings: 24 hours after SIRS induction; 1 mg/kg pentostatin 2 hours after induction
# Description: as §1, §2
# [10] = system: septic rats; experiment: Capillary leakage: examination of peritoneal cavity and bowel of septic rats; assay type: in vivo, rat; settings: for Volume of fluid in the peritoneal cavity: untreated 2-3 ml
# [11] = system: TNF-α, IL-1 beta, IL-10; experiment: Cytokine concentrations after ip E coli endotoxin (LPS), pentostatin dose response (FIG. 16); assay type: in vivo, rat; settings: response to 2 mg/kg LPS (endotoxin), 2 hours after ip injection
# Text: Lower doses than this were unable to consistently suppress TNF-α and IL-1 beta with concommittant stimulation of the anti-inflammatory cytokine, IL-10.
# [12] = system: IL-10; experiment: IL-10 in serum, liver and spleen in fluid-resuscitated SIRS; assay type: in vivo, rat; settings: pentostatin treatment
# Description: as §1, §2
# [13] = system: septic rats; experiment: Survival of septic rats to day 3; assay type: in vivo, rat; settings: pentostatin 5 mg/kg/12 h; 8-SPT 400 μg/kg/8 h; 3 days post-sepsis
# Description: as §3
# as §4, with “The catheters were secured in their respective vessels, tunneled subcutaneously to exit in the interscapular region, and filled with heparinized saline (50 units/ml 0.9% normal saline). Incisions were closed in layers using 3-0 silk. Rats were allowed to recover from anesthetic and provided food and water ad libitum,” left out
# as §5
# [14] = system: adenosine receptors; experiment: Regional vascular resistance by radiolabelled microspheres 24 hours after sepsis induction; assay type: in vivo, rat; settings: septic rats
# Description: Systemic vascular responses were examined 24 hours after induction of sepsis in the presence or absence of adenosine receptor blockade in septic and non-septic rats using radiolabelled microspheres. For these experiments, the surgical procedure involving vascular access was modified to include a catheter in the left ventricle of the heart (via the carotid artery), and a catheter in the tail artery (Intramedic PE-50, Baxter) to permit reference blood withdrawal and blood pressure monitoring. Regional blood flows were determined using radiolabelled microspheres. The microspheres ([…] New England Nuclear, Boston), labeled with one of four isotopes (^46Sc, ^85Sr, ^95Nb, ^141Ce), were mixed in 0.9% normal saline with 0.01 % Tween-80 added to prevent aggregation. The microspheres were adjusted to provide a minimum of 400 microspheres per tissue sample, and represented approximately 100,000-250,000 spheres per injection. The specific Isotopes and their order of injection were randomized in each experiment. with each injection representing a volume of 0.4 ml/injectate. The microspheres were sonicated for a minimum of 30 minutes, and vortexed vigorously for at least 30 seconds prior to injection. A reference withdrawal sample was taken at 0.33 ml/min from the tail artery catheter using a mechanical pump (Harvard Model 22). The reference withdrawal was started 10 seconds prior to injecting the isotopes, and continued for 150 seconds. […] Wet weights were obtained and all tissues were counted in a gamma spectrophotometer (Beckman 9000). Gamma activity in the injectate vials was counted prior to the experiments. Actual injected amounts for each isotope were calculated by subtracting any isotope counts remaining in the vials, syringes, and catheters used for injection. Cardiac output (CO) was determined by dividing the total injectate counts for any given isotope by the counts in the reference sample and multiplying by the fixed withdrawal rate of the reference sample. The results for cardiac output are expressed as ml/min. Tissue counts attributed to each isotope were determined after subtracting the overlap of energy spectra from higher energy isotopes (Compton back-scatter). Individual tissue blood flows were determined by dividing the counts obtained in the tissue by the reference withdrawal counts and multiplying by the reference withdrawal rate. Tissue blood flows were then normalized to wet weight was calculated by adding the individual tissue blood flows of the stomach, small intestine, cecum, colon, pancreas, hepatic artery and spleen, and dividing by the liver weight. Regional tissue vascular resistances were calculated from regional blood flows and arterial blood pressure, according to the equation: […]
# [15] = biological target: T2, xanthine oxidase (Rattus norvegicus, UniProt P22985); settings: 10 nM, hypoxic perfused rat hearts; cited from earlier work
# T2 construct: host or cells: isolated perfused rat heart
# T2 sequence (P22985 whole entry, the tested form may be a part): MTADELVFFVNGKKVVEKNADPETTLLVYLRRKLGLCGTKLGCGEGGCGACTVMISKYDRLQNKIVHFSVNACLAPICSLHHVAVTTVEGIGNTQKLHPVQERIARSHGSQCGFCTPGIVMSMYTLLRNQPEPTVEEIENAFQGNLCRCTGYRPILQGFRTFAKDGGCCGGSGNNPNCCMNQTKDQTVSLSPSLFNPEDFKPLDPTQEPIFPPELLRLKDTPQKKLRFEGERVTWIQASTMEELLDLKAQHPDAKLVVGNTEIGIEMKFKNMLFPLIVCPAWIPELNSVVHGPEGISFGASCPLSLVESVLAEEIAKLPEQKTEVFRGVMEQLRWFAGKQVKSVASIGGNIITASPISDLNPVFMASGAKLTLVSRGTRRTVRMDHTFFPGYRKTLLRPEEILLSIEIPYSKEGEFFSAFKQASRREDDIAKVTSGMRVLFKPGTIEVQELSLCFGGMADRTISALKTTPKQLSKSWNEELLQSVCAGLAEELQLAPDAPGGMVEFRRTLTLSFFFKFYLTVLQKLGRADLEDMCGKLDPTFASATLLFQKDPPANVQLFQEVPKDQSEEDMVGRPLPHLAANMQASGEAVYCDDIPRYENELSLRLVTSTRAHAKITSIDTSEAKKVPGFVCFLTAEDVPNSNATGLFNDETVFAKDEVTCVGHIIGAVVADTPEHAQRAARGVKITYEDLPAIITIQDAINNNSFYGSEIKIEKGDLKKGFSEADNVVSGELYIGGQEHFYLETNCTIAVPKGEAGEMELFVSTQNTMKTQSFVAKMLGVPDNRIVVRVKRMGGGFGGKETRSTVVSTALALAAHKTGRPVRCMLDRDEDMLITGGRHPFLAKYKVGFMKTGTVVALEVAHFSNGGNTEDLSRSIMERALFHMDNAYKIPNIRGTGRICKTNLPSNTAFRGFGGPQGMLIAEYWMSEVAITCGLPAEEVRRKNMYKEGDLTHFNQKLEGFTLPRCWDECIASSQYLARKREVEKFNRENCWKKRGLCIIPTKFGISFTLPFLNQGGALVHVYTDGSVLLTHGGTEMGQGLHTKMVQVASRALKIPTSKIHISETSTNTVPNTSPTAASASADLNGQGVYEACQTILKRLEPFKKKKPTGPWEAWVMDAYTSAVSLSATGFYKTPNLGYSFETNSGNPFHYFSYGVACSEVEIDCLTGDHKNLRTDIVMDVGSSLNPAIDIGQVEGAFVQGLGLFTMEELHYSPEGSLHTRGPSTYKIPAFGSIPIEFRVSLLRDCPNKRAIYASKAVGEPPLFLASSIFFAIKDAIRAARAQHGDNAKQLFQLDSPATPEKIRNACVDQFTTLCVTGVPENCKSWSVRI
Compound,Enzyme-inhibitory activity against adenosine deaminase [1],Effect on serum TNF-α response to sepsis at 4 hours [3],Effect on serum TNF-α response to sepsis at 24 hours [3],Serum TNF-α at 4 hours after sepsis induction [3],Serum TNF-α at 24 hours after sepsis induction [3],Blood pressures or heart rates versus saline-treated septic rats [5],Capillary leakage [10],Small bowel hemorrhage [10],Volume of fluid in the peritoneal cavity [10],Septic rats surviving to day 3 [13],Brain (cerebral) vascular resistance [14],also measured
OCC1OC(n2cnc3c2N=CNCC3O)C(F)C1O (stereo not shown) [2′-deoxy-2′-fluorocoformycin],high enzyme-inhibitory activities,,,,,,,,,,,
"OC[C@H]1O[C@@H](n2cnc3c2NC=NC[C@H]3O)C[C@@H]1O [pentostatin, (R)-3-(2-deoxy-beta-D-erythropentofuranosyl)-3,6,7,8-tetrahydro-imidazo[4,5-d]-[1,3] diazepin-8-ol]",,attenuation of this response,attenuation of this response,592 ± 62 pg/mL,671 ± 175 pg/mL,neither the groups treated with pentostatin nor the groups treated with 8-SPT were blood pressures or heart rates significantly different,amelioration of capillary leakage,little to no evidence of small bowel hemorrhage,0 to 1 mL,4 of the 5 and 4 of 5,,Serum TNF-α [2]: 20.3 ± 14.8 pg/mL; Circulating sTNFRII (p75) [4]: 16525 ± 1226 pg/mL; Mortality in SIRS model [6]: effective in reducing mortality; Serum IL-6 [7]: 5525 ± 1435 pg/mL; Jejunum tissue TBARS during sepsis [8]: diminution of tissue TBARS; Circulating sTNFRI (p55) [9]: 4624 ± 404 pg/mL; Dose with maximal effect on modulating cytokine concentrations [11]: 1 mg/kg; Serum concentrations of IL-10 ([12]; FIG. 14(A)): unaffected; IL-10 concentrations in the liver and spleen ([12]; FIG. 14(B) and 14(C)): elevated
8-sulfophenyltheophylline [8-SPT],,not at 4 hours,amplified the response,1167 ± 428 pg/mL,2479 ± 875 pg/mL,neither the adenosine deaminase inhibition nor the 8-SPT groups were blood pressures or heart rates significantly different; also recorded: neither the groups treated with pentostatin nor the groups treated with 8-SPT were blood pressures or heart rates significantly different,exacerbation of capillary leakage,small bowel hemorrhaging was evident,3 to 5 mL,2 of the 5 and 1 of 5,exception of changes in cerebral vascular resistance,
"Cn1c(=O)c2[nH]c(-c3ccccc3)nc2n(C)c1=O [8-PTH, 8-phenyltheophylline]",,,,,,,,,,,caused increases,Skeletal muscle vascular resistance [14]: caused increases; Total hepato-splanchnic vascular resistance [14]: caused increases
Oc1ncnc2[nH]ncc12 [Allopurinol],,,,,,,,,,,,Uric acid production [15]: below detectable levels
OC[C@H]1O[C@@H](n2cnc3c2N=CNC[C@@H]3O)[C@H](F)[C@@H]1O [2′-deoxy-8-epi-2′-fluorocoformycin],high enzyme-inhibitory activities,,,,,,,,,,,
